We go through ten molecules from patent EP4707277A1, “NOVEL HETEROCYCLIC AMINE DERIVATIVES AND PHARMACEUTICAL COMPOSITION COMPRISING SAME” (Daewoong Pharmaceutical Co., Ltd., priority 2023, dated 2024).

One assay has as its target T1, BTK (Homo sapiens, UniProt Q06187).
T1 construct: purchased Signalchem B10-10H
In words: Inhibitory activity against BTK, ADP-Glo Kinase system (Promega). The assay is classed as biochemical. Summed up:
(§1)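 ADP-Glo luminescent ADP detection with recombinant human ITK (4 ng/reaction) or BTK (10 ng/reaction) and poly(Glu4,Tyr1) substrate at 0.2 µg/µl. Buffer: Tris pH 7.5, MgCl2, MnCl2, BSA, DTT. ATP 1 mM or Km (BTK 10 µM, ITK 25 µM); 1% DMSO; 1 h at 30°C; IC50 from curve fit.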

For another assay, the target named is T2, ITK (Homo sapiens, UniProt Q08881).
T2 construct: purchased Signalchem I13-11G-10
T2 sequence (Q08881 1-620): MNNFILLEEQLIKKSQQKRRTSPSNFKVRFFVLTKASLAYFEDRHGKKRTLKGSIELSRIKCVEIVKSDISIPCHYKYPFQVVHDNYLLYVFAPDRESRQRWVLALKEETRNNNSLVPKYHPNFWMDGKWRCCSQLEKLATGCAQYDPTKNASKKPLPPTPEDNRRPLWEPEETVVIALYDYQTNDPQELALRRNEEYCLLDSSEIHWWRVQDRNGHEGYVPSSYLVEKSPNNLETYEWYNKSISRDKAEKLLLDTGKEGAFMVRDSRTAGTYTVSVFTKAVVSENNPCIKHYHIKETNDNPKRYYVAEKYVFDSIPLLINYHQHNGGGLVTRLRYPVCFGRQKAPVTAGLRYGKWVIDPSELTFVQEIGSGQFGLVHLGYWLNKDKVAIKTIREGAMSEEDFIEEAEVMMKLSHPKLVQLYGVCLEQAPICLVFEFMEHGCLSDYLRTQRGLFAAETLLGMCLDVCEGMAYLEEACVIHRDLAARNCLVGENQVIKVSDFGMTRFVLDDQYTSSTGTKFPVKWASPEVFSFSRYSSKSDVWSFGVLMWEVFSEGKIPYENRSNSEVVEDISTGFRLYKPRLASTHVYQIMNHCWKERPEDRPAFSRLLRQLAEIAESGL
In words: Inhibitory activity against ITK, ADP-Glo Kinase system (Promega). In kind it is biochemical. Put shortly:
as §1
On the technique in general: ADP-Glo first removes unused ATP, then detects ADP through luciferase.

Where [1] appears, read: 1mM ATP, read-out: BTK IC50(nM) 1mM ATP.
[2] abbreviates: 1mM ATP, read-out: ITK IC50(nM) 1mM ATP.
Setting [3] is: Km ATP (BTK: 10 uM), read-out: BTK IC50(nM) Km ATP.
Setting [4] is: Km ATP (ITK: 25uM), read-out: ITK IC50(nM) Km ATP.

Like-named read-outs stand apart in the source and are kept apart here.

T1 sequence (Q06187 whole entry): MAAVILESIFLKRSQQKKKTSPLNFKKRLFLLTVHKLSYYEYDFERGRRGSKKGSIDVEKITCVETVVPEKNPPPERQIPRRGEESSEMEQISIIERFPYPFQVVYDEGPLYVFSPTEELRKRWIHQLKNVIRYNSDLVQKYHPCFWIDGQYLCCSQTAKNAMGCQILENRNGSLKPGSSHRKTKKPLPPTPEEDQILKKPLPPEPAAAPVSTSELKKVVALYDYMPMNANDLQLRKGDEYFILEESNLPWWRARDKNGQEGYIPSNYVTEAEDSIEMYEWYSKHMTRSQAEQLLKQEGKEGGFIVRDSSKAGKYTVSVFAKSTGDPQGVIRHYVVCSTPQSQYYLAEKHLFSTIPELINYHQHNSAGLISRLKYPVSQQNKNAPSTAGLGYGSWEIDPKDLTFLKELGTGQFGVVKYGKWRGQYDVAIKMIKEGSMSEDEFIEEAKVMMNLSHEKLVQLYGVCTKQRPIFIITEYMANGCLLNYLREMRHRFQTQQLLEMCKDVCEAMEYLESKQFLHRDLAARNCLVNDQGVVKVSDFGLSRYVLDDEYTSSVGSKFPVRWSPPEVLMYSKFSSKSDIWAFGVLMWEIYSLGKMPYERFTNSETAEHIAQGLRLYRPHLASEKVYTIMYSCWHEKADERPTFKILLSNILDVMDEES

For `C=CC(=O)N1C[C@H](F)[C@H](Oc2nc(Nc3cccn(C)c3=O)cc3c2ccn3CC(C)C)C1` [Example 199, 3-((4-(((3R,4S)-1-acryloyl-4-fluoropyrrolidin-3-yl)oxy)-1-isobutyl-1H-pyrrolo[3,2-c]pyridin-6-yl)amino)-1-methylpyridin-2(1H)-one], the IC50 at BTK (setting [1]) and on ITK (setting [2]) was above 500 nM throughout.

As to `C=CC(=O)N1CC[C@@H]1COc1nc(Nc2ncc(C)s2)cc2c1ccn2CC(F)F` [Example 209, (R)-1-(2-(((1-(2,2-difluoroethyl)-6-((5-methylthiazol-2-yl)amino)-1H-pyrrolo[3,2-c]pyridin-4-yl)oxy)methyl)azetidin-1-yl)prop-2-en-1-one], the IC50 on BTK (setting [1]) and at ITK (setting [2]) was at most 20 nM in each case.

As for `C=CC(=O)N1C[C@@H](F)[C@H](Oc2nc(Nc3ncc(C)s3)cc3c2ccn3C2CCCC2)C1` [Example 110, 1-((3R,4R)-3-((1-cyclopentyl-6-((5-methylthiazol-2-yl)amino)-1H-pyrrolo[3,2-c]pyridin-4-yl)oxy)-4-fluoropyrrolidin-1-yl)prop-2-en-1-one], the IC50 on BTK (setting [1]) and on ITK (setting [2]) was at most 20 nM in each case.

With `CC#CC(=O)N1C[C@H](F)[C@H](Oc2nc(Nc3ncc(C)s3)cc3c2ccn3CC(C)C)C1` [Example 230, 1-((3S,4R)-3-fluoro-4-((1-isobutyl-6-((5-methylthiazol-2-yl)amino)-1H-pyrrolo[3,2-c]pyridin-4-yl)oxy)pyrrolidin-1-yl)but-2-yn-1-one], the IC50 on BTK (setting [1]) and on ITK (setting [2]) was above 500 nM throughout.

Consider `C=CC(=O)Nc1cc(-c2nc(Nc3ncc(C)s3)cc3c2ccn3CC2CC2)ccc1F` [Example 64, N-(5-(1-(cyclopropylmethyl)-6-((5-methylthiazol-2-yl)amino)-1H-pyrrolo[3,2-c]pyridin-4-yl)-2-fluorophenyl)acrylamide], for which the IC50 on BTK (setting [3]) and on ITK (setting [4]) was at most 20 nM in each case.

For `C=CC(=O)N1CCC[C@H]1COc1nc(Nc2ncc(C)s2)cc2c1ccn2CC(C)CC` (stereo partly drawn) [Example 221, 1-((2S)-2-(((1-(2-methylbutyl)-6-((5-methylthiazol-2-yl)amino)-1H-pyrrolo[3,2-c]pyridin-4-yl)oxy)methyl)pyrrolidin-1-yl)prop-2-en-1-one], the IC50 (as a rule, the midpoint of a concentration-inhibition curve) is at most 20 nM on BTK (setting [1]) and 20 to 100 nM on ITK (setting [2]).

Consider `C=CC(=O)Nc1cc(-c2nc(Nc3ncc(C)s3)cc3c2ccn3CC2CCOC2)ccc1F` (stereo not shown) [Example 72, N-(2-fluoro-5-(6-((5-methylthiazol-2-yl)amino)-1-((tetrahydrofuran-3-yl)methyl)-1H-pyrrolo[3,2-c]pyridin-4-yl)phenyl)acrylamide], for which the IC50 at BTK (setting [3]) and on ITK (setting [4]) was at most 20 nM each time.

As to `C=CC(=O)N1CC=C(c2nc(Nc3ncc(C)s3)cc3c2ccn3[C@H](C)CC)CC1` [Example 14, (R)-1-(4-(1-(sec-butyl)-6-((5-methylthiazol-2-yl)amino)-1H-pyrrolo[3,2-c]pyridin-4-yl)-3,6-dihydropyridin-1(2H)-yl)prop-2-en-1-one], the IC50 at BTK (setting [3]) and at ITK (setting [4]) was at most 20 nM throughout.

As to `C=CC(=O)Nc1c(C)ccc(-c2nc(Nc3ncc(C)s3)cc3c2ccn3C)c1C` [Example 56, N-(2,6-dimethyl-3-(1-methyl-6-((5-methylthiazol-2-yl)amino)-1H-pyrrolo[3,2-c]pyridin-4-yl)phenyl)acrylamide], the half-maximal inhibitory concentration (IC50) is at most 20 nM on BTK (setting [1]), at most 20 nM on BTK (setting [3]), above 500 nM at ITK (setting [2]) and at most 20 nM on ITK (setting [4]).

Consider `C=CC(=O)N1CC[C@H](Oc2nc(Nc3ncc(C)s3)cc3c2ccn3CC(C)(C)O)C1` [Example 140, (S)-1-(3-((1-(2-hydroxy-2-methylpropyl)-6-((5-methylthiazol-2-yl)amino)-1H-pyrrolo[3,2-c]pyridin-4-yl)oxy)pyrrolidin-1-yl)prop-2-en-1-one], for which the IC50 on BTK (setting [1]) and at ITK (setting [2]) was at most 20 nM each time.
